Laboratory results as given in patent US9169247B2, “Tetrahydro-beta-carboline derivatives, synthesis and use thereof” (Southern Research Institute, priority 2009, dated 2015).
Read-outs that look alike come from different tables or passages of the source.

Assays:
[1] = test system: 786-0; assay: Growth assay (Cell Titer Glo); assay type: cell-based; conditions: Homo sapiens; 786-0, renal
Method: (§1) All human tumor cell lines were obtained from ATCC and grown under standard cell culture conditions at 37° C. in a humidified atmosphere with 5% CO2. Cells were grown in RPMI 1640 supplemented with 5% fetal bovine serum 2 mM glutamine, 100 units/ml penicillin, 100 units/ml streptomycin, and 0.25 μg/ml amphotericin. Cells were harvested at 70 to 90% confluence with trypsin/EDTA and used immediately Cell count and viability was determined by Trypan blue staining followed by hemocytometry. Only cultures displaying >95% cell viability were used for experiments. HMEC were grown according to the specifications from the supplier (Lonzo).
(§2) Tissue culture microtiter 96-well plates were seeded with cells at a density of 5,000 cells/well. The plates were incubated for 18-24 hours prior to any treatment. All test compounds were solubilized in 100% DMSO and diluted with media to obtain a final DMSO concentration of 0.1%. Cell viability was measured 72 hours after treatment by the Cell Titer Glo Assay (Promega), which is a luminescent assay that is an indicator of live cells as a function of metabolic activity and ATP content. The assay was performed according to manufacturer's specifications. Luminescence was measured by a Perkin Elmer Victor® multi-label plate reader.^6
(§3) Dose response curves were analyzed using Prism™ 4 software (GraphPad) to calculate IC50 values using a four parameter logistic equation.

[2] = test system: ACHN; assay: Growth assay (Cell Titer Glo); assay type: cell-based; conditions: Homo sapiens, renal
Method: as §1, §2, §3

[3] = test system: CCFR-CEM; assay: Growth assay (Cell Titer Glo); assay type: cell-based; conditions: Homo sapiens, hematopoietic
Method: as §1, §2, §3

[4] = test system: DU-145; assay: Growth assay (Cell Titer Glo); assay type: cell-based; conditions: Homo sapiens; DU-145, prostate
Method: as §1, §2, §3

[5] = test system: EKVX; assay: Growth assay (Cell Titer Glo); assay type: cell-based; conditions: Homo sapiens, lung
Method: as §1, §2, §3

[6] = test system: HCT-15; assay: Growth assay (Cell Titer Glo); assay type: cell-based; conditions: Homo sapiens; HCT-15, colon
Method: as §1, §2, §3

[7] = test system: HL-60(TB); assay: Growth assay (Cell Titer Glo); assay type: cell-based; conditions: Homo sapiens, hematopoietic
Method: as §1, §2, §3

[8] = test system: HOP-62; assay: Growth assay (Cell Titer Glo); assay type: cell-based; conditions: Homo sapiens; HOP-62, lung
Method: as §1, §2, §3

[9] = test system: IGROVI; assay: Growth assay (Cell Titer Glo); assay type: cell-based; conditions: Homo sapiens; IGROVI / IGROV-1, ovarian
Method: as §1, §2, §3

[10] = test system: KM12; assay: Growth assay (Cell Titer Glo); assay type: cell-based; conditions: Homo sapiens; KM12, colon
Method: as §1, §2, §3

[11] = test system: M14; assay: Growth assay (Cell Titer Glo); assay type: cell-based; conditions: Homo sapiens; M14, melanoma
Method: as §1, §2, §3

[12] = test system: MALME-3M; assay: Growth assay (Cell Titer Glo); assay type: cell-based; conditions: Homo sapiens, melanoma
Method: as §1, §2, §3

[13] = test system: MCF-7; assay: Growth assay (Cell Titer Glo); assay type: cell-based; conditions: Homo sapiens, MCF7; MCF-7, breast
Method: as §1, §2, §3

[14] = test system: MOLT-4; assay: Growth assay (Cell Titer Glo); assay type: cell-based; conditions: Homo sapiens; MOLT-4, hematopoietic
Method: as §1, §2, §3

[15] = test system: NCI-H460; assay: Growth assay (Cell Titer Glo); assay type: cell-based; conditions: Homo sapiens; NCI-H460, lung
Method: as §1, §2, §3

[16] = test system: OVCAR-4; assay: Growth assay (Cell Titer Glo); assay type: cell-based; conditions: Homo sapiens; OVCAR-4, ovarian
Method: as §1, §2, §3

[17] = test system: OVCAR-5; assay: Growth assay (Cell Titer Glo); assay type: cell-based; conditions: Homo sapiens; OVCAR-5, ovarian
Method: as §1, §2, §3

[18] = test system: OVCAR-8; assay: Growth assay (Cell Titer Glo); assay type: cell-based; conditions: Homo sapiens; OVCAR-8, ovarian
Method: as §1, §2, §3

[19] = test system: PC-3; assay: Growth assay (Cell Titer Glo); assay type: cell-based; conditions: Homo sapiens; PC-3, prostate
Method: as §1, §2, §3

[20] = test system: RPMI-8226; assay: Growth assay (Cell Titer Glo); assay type: cell-based; conditions: Homo sapiens; RPMI-8226, hematopoietic
Method: as §1, §2, §3

[21] = test system: SF-268; assay: Growth assay (Cell Titer Glo); assay type: cell-based; conditions: Homo sapiens; SF-268, CNS
Method: as §1, §2, §3

[22] = test system: SK-MEL-28; assay: Growth assay (Cell Titer Glo); assay type: cell-based; conditions: Homo sapiens
Method: as §1, §2, §3

[23] = test system: SKOV-3; assay: Growth assay (Cell Titer Glo); assay type: cell-based; conditions: Homo sapiens; SKOV-3 / SK-OV-3, ovarian
Method: as §1, §2, §3

[24] = test system: SN12C; assay: Growth assay (Cell Titer Glo); assay type: cell-based; conditions: Homo sapiens, renal
Method: as §1, §2, §3

[25] = test system: SNB-19; assay: Growth assay (Cell Titer Glo); assay type: cell-based; conditions: Homo sapiens; SNB-19, CNS
Method: as §1, §2, §3

[26] = test system: SNB-75; assay: Growth assay (Cell Titer Glo); assay type: cell-based; conditions: Homo sapiens; SNB-75, CNS
Method: as §1, §2, §3

[27] = test system: SR; assay: Growth assay (Cell Titer Glo); assay type: cell-based; conditions: Homo sapiens, hematopoietic
Method: as §1, §2, §3

[28] = test system: SW-620; assay: Growth assay (Cell Titer Glo); assay type: cell-based; conditions: Homo sapiens; SW-620, colon
Method: as §1, §2, §3

[29] = test system: T-47D; assay: Growth assay (Cell Titer Glo); assay type: cell-based; conditions: Homo sapiens, T47D, breast
Method: as §1, §2, §3

[30] = test system: U251; assay: Growth assay (Cell Titer Glo); assay type: cell-based; conditions: Homo sapiens, U-251; U251, CNS
Method: as §1, §2, §3

[31] = test system: UACC-62; assay: Growth assay (Cell Titer Glo); assay type: cell-based; conditions: Homo sapiens; UACC-62, melanoma
Method: as §1, §2, §3

[32] = test system: UO-31; assay: Growth assay (Cell Titer Glo); assay type: cell-based; conditions: Homo sapiens; UO-31, renal
Method: as §1, §2, §3

[33] = test system: human MDA-MB-231 breast tumor cells; assay: Growth assay (Cell Titer Glo); assay type: cell-based; conditions: Homo sapiens
Method: as §1, §2, §3

[34] = test system: HT-29; assay: Growth assay (Cell Titer Glo); assay type: cell-based, human; conditions: HT-29 colon
Method: Compounds 2a-h were tested for tumor cell growth inhibitory activity using the human breast MDA-MB-231 and ZR75-1 tumor cell lines and the colon CACO-2, SW-1116, and HT-29 tumor cell lines.
as §1, §2, §3

[35] = test system: human Caki-1 renal tumor cell line; assay: Growth assay (Cell Titer Glo); assay type: cell-based
Method: FIGS. 3A-B illustrate the anticancer activity of compound 2j. […] The cells with treated for 72 hours prior to measuring cell viability using the Cell Titer Glo assay (Promega Corp.). […] Tumor bearing mice were treated at a dose of 10 mg/kg one time per day for 22 days.
All human tumor cell lines were obtained from ATCC and grown under standard cell culture conditions at 37° C. in a humidified atmosphere with 5% CO2. Cells were grown in RPMI 1640 supplemented with 5% fetal bovine serum 2 mM glutamine, 100 units/ml penicillin, 100 units/ml streptomycin, and 0.25 μg/ml amphotericin. Cells were harvested at 70 to 90% confluence with trypsin/EDTA and used immediately Cell count and viability was determined by Trypan blue staining followed by hemocytometry. Only cultures displaying >95% cell viability were used for experiments. […]
Tissue culture microtiter 96-well plates were seeded with cells at a density of 5,000 cells/well. […] Cell viability was measured 72 hours after treatment by the Cell Titer Glo Assay (Promega), which is a luminescent assay that is an indicator of live cells as a function of metabolic activity and ATP content. […] Luminescence was measured by a Perkin Elmer Victor® multi-label plate reader.^6
as §3

Row | Structure (SMILES) | IC50 [1] | IC50 [2] | IC50 [3] | IC50 [4] | IC50 [5] | IC50 [6] | IC50 [7] | IC50 [8] | IC50 [9] | IC50 [10] | IC50 [11] | IC50 [12] | IC50 [13] | IC50 [14] | IC50 [15] | IC50 [16] | IC50 [17] | IC50 [18] | IC50 [19] | IC50 [20] | further results
1 | COC(=O)[C@H]1Cc2c([nH]c3ccccc23)[C@H](c2cc(OC)ccc2OC)N1C(=O)CCl [Compound 2f, Methyl (1S,3R)-1-(2,5-dimethoxyphenyl)-2-(2-chloroacetyl)-2,3,4,9-tetrahydro-1H-β-carboline-3-carboxylate] | 32 nM | 1.3 nM | < 6 nM | 232 nM | 14 nM | > 10000 nM | 17 nM | 20 nM | 10 nM | 1370 nM | 485 nM | 132 nM | 3750 nM | 161 nM | > 10000 nM | 15 nM | 1000 nM | 68 nM | 192 nM | 17 nM | IC50 [21]: 690 nM; IC50 [22]: 485 nM; IC50 [23]: 60 nM; IC50 [24]: 375 nM; IC50 [25]: 131 nM; IC50 [26]: 63 nM; IC50 [27]: < 7 nM; IC50 [28]: 3310 nM; IC50 [29]: 973 nM; IC50 [30]: 259 nM; IC50 [31]: 119 nM; IC50 [32]: < 9 nM; IC50 ([33]; MDA-MB-231, 72 h, MDA-MB-231 breast, 72 h, Tables 3-5, read-out: IC50 value, μM, growth): 0.006 µM; IC50 ([34]; 72 h): 0.452 µM; IC50 ([34]; Homo sapiens, HT-29, 72 h): 0.45 µM; IC50 ([35]; CAKI-1, CAKI-1, renal, read-out: IC50): < 6 nM; melting point: 232 °C
2 | COC(=O)[C@H]1Cc2c([nH]c3ccccc23)[C@H](c2ccc(Cl)cc2Cl)N1C(=O)CCl [Compound 2j, (1S,3R) Methyl 1-(2,4-dichlorophenyl)-2-(2-chloroacetyl)-2,3,4,9-tetrahydro-1H-β-carboline-3-carboxylate] | 20 nM | 10 nM | 10 nM | > 3000 nM | 20 nM | > 3000 nM | 40 nM | 200 nM | 20 nM | 630 nM | 2260 nM | > 3000 nM | > 3000 nM | 130 nM | < 1 nM | 50 nM | 490 nM | 50 nM | 340 nM | 80 nM | IC50 [21]: 100 nM; IC50 [22]: 1040 nM; IC50 [23]: 320 nM; IC50 [24]: > 3000 nM; IC50 [25]: 1040 nM; IC50 [26]: 100 nM; IC50 [27]: 8 nM; IC50 [28]: 2750 nM; IC50 [29]: 120 nM; IC50 [30]: 1880 nM; IC50 [31]: 290 nM; IC50 [32]: 5 nM; inhibition at 10 µM ([33]; MDA-MB-231, MDA-MB-231, 10 μM, mean +/− spread): 98%; IC50 ([33]; MDA-MB-231, MDA-MB-231, Tables 1 and 2, read-out: Growth Inhibition IC50, μM (95% CI)): 0.07 µM; IC50 ([34]; Homo sapiens, HT-29, 72 h): 0.65 µM; IC50 ([35]; CAKI-1, 72 h, FIG. 3A legend, read-out: IC50 value, tumor cell growth): 2.3 nM; melting point: 106 to 109 °C
